Where a name gives a salt, the structure may show the parent alone.

This experiment deals with footpad swelling (SRBC challenge). The experiment can be described thus: Delayed Hypersensitivity Assay (SRBC-sensitized mice, footpad swelling). The conditions noted are these: Mus musculus, one hour prior to challenge, 24 hrs post challenge, read-out: Inhibition % (percent inhibition of footpad swelling); for inhibition in vivo at 0.1 mg/kg: dosage 0.1 mg/kg p.o.; for inhibition in vivo at 1 mg/kg: dosage 1.0 mg/kg p.o.; for inhibition in vivo at 10 mg/kg: dosage 10.0 mg/kg p.o.; for inhibition in vivo at 10000 µg/mL / inhibition in vivo at 10 µg/mL / inhibition in vivo at 100 µg/mL / inhibition in vivo at 100000 µg/mL: Table II; for inhibition in vivo at 10000 µg/mL: dosage 10.0 (mg/ml as printed) p.o.; for inhibition in vivo at 10 µg/mL: dosage 0.01 (mg/ml as printed) p.o.; for inhibition in vivo at 100 µg/mL: dosage 0.1 (mg/ml as printed) p.o.; for inhibition in vivo at 100000 µg/mL: dosage 100.0 (mg/ml as printed) p.o.; for inhibition in vivo at 0.01 mg/kg: dosage 0.01 mg/kg p.o.; for inhibition in vivo at 100 mg/kg: dosage 100.0 mg/kg p.o. The class given is in vivo, female BALB/C mice. As for the experimental part:
Animals (female BALB/C mice) are sensitized with 5×10^5 SRBC(sheep red blood cells)/0.5 ml by intravenous (tail vein) injection. One hour prior to challenge, animals are dosed with the drugs in question, p.o. On day four the animals are challenged with 5×10^8 SRBC/0.05 ml in the hind foot pad. Footpad volume is measured by a mercury displacement apparatus before challenge and 24 hrs post challenge. Percent inhibition of footpad swelling is calculated by comparing the increase in footpad volume of test group to the control group.

For `OCC(c1ccccc1)c1nc(-c2ccncc2)cs1` (stereo not drawn) [CH2 OH, 2-Phenyl-2-[4-(4-pyridyl)-2-thiazolyl] ethanol], under “po, Table I”, the inhibition in vivo at 0.1 mg/kg was 51%, the inhibition in vivo at 1 mg/kg is 65% and the inhibition in vivo at 10 mg/kg turned out to be 27%.
In the case of `O=CC(c1ccccc1)c1nc(-c2ccncc2)cs1` (stereo not drawn) [CHO], under “po, Table I”, the inhibition in vivo at 10 mg/kg amounted to 63%.
Regarding `N#CC(c1ccccc1)c1nc(-c2ccncc2)cs1` (stereo not drawn) [CN, 2-Phenyl-2-[4-(4-pyridyl)-2-thiazolyl]acetonitrile], where the note is “po, Table I”, the inhibition in vivo at 0.1 mg/kg was 58% and the inhibition in vivo at 1 mg/kg was 46%.
On to `N#Cc1cc(-c2csc(Cc3ccccc3)n2)ccn1` [Example 2-CN], for which the inhibition in vivo at 10000 µg/mL worked out at 36.6%.
Turning to `Clc1cc(-c2csc(Cc3ccccc3)n2)ccn1` [Example 2-Cl, 2-Benzyl-4-(2-chloro-4-pyridyl)thiazole], the inhibition in vivo at 10 µg/mL came to 52.6%, the inhibition in vivo at 100 µg/mL worked out at 64.7%, the inhibition in vivo at 10000 µg/mL amounted to 77.6% and the inhibition in vivo at 100000 µg/mL was determined as 80.1%.
For `c1ccc(Cc2nc(-c3ccnc(N4CCOCC4)c3)cs2)cc1` [Example 2-morpholino] the same measures were 26.1%, 33.8%, 44.3% and 45.1%.
In the case of `FC(F)(c1ccccc1)c1nc(-c2ccncc2)cs1` [F,F, 1,1-Difluoro-1-phenyl-1-[4-(4-pyridyl)-2-thiazolyl]-methane], where the note is “po, Table I”, the inhibition in vivo at 1 mg/kg amounted to 49% and the inhibition in vivo at 10 mg/kg amounted to 63%.
Consider `c1ccc(Cc2nc(-c3ccncc3)cs2)cc1` [H, 2-Benzyl-4-(4-pyridyl)thiazole], for which, for the setting “po, Table I”, the inhibition in vivo at 0.01 mg/kg came out at 21.8% and the inhibition in vivo at 0.1 mg/kg came out at 70.2%. Moreover, the inhibition in vivo at 30 mg/kg (po, Table I, dosage 30 mg/kg p.o.) was determined as 75.2%.
In the case of `[O-][n+]1ccc(-c2csc(Cc3ccccc3)n2)cc1` [Noxide, 4-[2-(Phenylmethyl)-4-thiazolyl]pyridine-1-oxide], the inhibition in vivo at 10 µg/mL came to 46%, the inhibition in vivo at 100 µg/mL worked out at 55.6%, the inhibition in vivo at 10000 µg/mL is 71.8% and the inhibition in vivo at 100000 µg/mL stood at 93.4%.
For the compound `OC(c1ccccc1)c1nc(-c2ccncc2)cs1` (stereo not drawn) [OH, 1-Phenyl-1-[4-(4-pyridyl)-2-thiazolyl]methanol], where the note is “po, Table I”, the inhibition in vivo at 0.1 mg/kg worked out at 32%, the inhibition in vivo at 1 mg/kg was 31% and the inhibition in vivo at 10 mg/kg turned out to be 55%.
Turning to `Fc1ccc(Cc2nc(-c3ccncc3)cs2)cc1` [PF, 2-(p-fluoro-benzyl)-4-(4-pyridyl)thiazole], under “po, Table I”, the inhibition in vivo at 0.1 mg/kg was determined as 11.7%, the inhibition in vivo at 1 mg/kg came to 60.8% and the inhibition in vivo at 10 mg/kg worked out at 40.9%.
On to `Cc1cccc(Cc2nc(-c3ccncc3)cs2)c1` [m-CH3, 2-(m-methyl-benzyl)-4-(4-pyridyl)thiazole dihydrochloride], for which, where the note is “po, Table I”, the inhibition in vivo at 0.1 mg/kg is 49.1%, the inhibition in vivo at 10 mg/kg stood at 64.8% and the inhibition in vivo at 100 mg/kg is 71.2%.
Consider `Nc1ccccc1Cc1nc(-c2ccncc2)cs1` [o-NH2, 2-(o-Aminobenzyl)-4-(4-pyridyl)thiazole], for which, under “po, Table I”, the inhibition in vivo at 0.01 mg/kg was 82.2%, the inhibition in vivo at 0.1 mg/kg was 93.6% and the inhibition in vivo at 10 mg/kg is 52.8%.
As for `CC(=O)Nc1ccccc1Cc1nc(-c2ccncc2)cs1` [o-NHCOCH3, 2-(o-acetamidobenzyl)-4-(4-pyridyl)thiazole], where the note is “po, Table I”, the inhibition in vivo at 0.1 mg/kg was found to be 32.6%, the inhibition in vivo at 10 mg/kg was found to be 52.8% and the inhibition in vivo at 100 mg/kg came out at 75.5%.
Consider `NC(=O)Nc1ccccc1Cc1nc(-c2ccncc2)cs1` [o-NHCONH2], for which, under “po, Table I”, the inhibition in vivo at 0.01 mg/kg is 40.4% and the inhibition in vivo at 10 mg/kg came to 31.4%.
As for `Oc1ccccc1Cc1nc(-c2ccncc2)cs1` [o-OH], for the setting “po, Table I”, the inhibition in vivo at 0.01 mg/kg came to 15.1% and the inhibition in vivo at 0.1 mg/kg amounted to 16.4%.
`c1ccc(-c2ccc(Cc3nc(-c4ccncc4)cs3)cc2)cc1` [p-C6 H5]: the inhibition in vivo at 10 mg/kg (po, Table I) came out at 36.4%.
Regarding `O=[N+]([O-])c1ccc(Cc2nc(-c3ccncc3)cs2)cc1` [p-NO2, 2-(p-Nitrobenzyl)-4-(4-pyridyl)thiazole], where the note is “po, Table I”, the inhibition in vivo at 0.01 mg/kg worked out at 32.4%, the inhibition in vivo at 0.1 mg/kg is 40.6%, the inhibition in vivo at 10 mg/kg worked out at 65.2% and the inhibition in vivo at 100 mg/kg worked out at 82.2%.

The record behind these values is patent publication US4697012A, “Morpholino pyridyl thiazole compound” (Merck & Co., Inc., priority 1984, dated 1987).
